According to patent US6387921B1 (dated 2002):

- melting point: 270 °C
SMILES: CC1(C)[C@H]2Cc3c(N)cccc3[C@]1(C)CCN2CCOCc1c(F)cccc1F.Cl.Cl
